Source: patent US9044491B2, “Method for improving blood flow using stilbenoid derivatives” (The Board of Trustees of the University of Arkansas, priority 2010, dated 2015)

Key:
CLP mice [1] = assay: Systemic serum nitric oxide levels after CLP; type: in vivo, mouse; settings: CLP mice at 18 hours, two doses
Protocol: Serum nitrate and […] were determined using the Total Nitric Oxide Assay Kit (Assay Designs, Ann Arbor, Mich.) as directed by the manufacturer. Data were expressed as serum nitrate+nitrate concentration in […].

[2] = test system: cecal ligation and puncture model (CLP); assay: RNS generation in renal tubules after CLP (rhodamine IVVM, anti-nitrotyrosine staining); type: in vivo, mouse; settings: for rhodamine fluorescence (RNS generation in renal tubules): 18 hours after CLP
Protocol: The reactive nitrogen species peroxynitrite preferentially oxidizes DHR to fluorescent rhodamine that is visualized at 535 nm excitation and 590 nm emission. Still images exposed for 500 ms were captured from fields of view used to determine capillary perfusion. Fluorescence intensity was measured by ImageJ (National Institutes of Health, Bethesda, Md.) after first subtracting background fluorescence intensity. Representative images of fluorescence are shown in FIG. 10, panels (A)-(C), and the quantification of fluorescence is shown in FIG. 10 panel D. Data are expressed as arbitrary units/μg. CLP increased the generation of RNS in the renal tubules compared to Control (Sham). […] Antigens were unmasked using 10 mM citrate (pH 6.0) and 95° C. for 30 min. Gill's hematoxylin II was used as a counterstain. […] FIG. 12 (E)-(G) show nitrotyrosine staining. After CLP, nitrotyrosine was intense in renal tubules but not in glomeruli. Two doses of tRes blocked formation of nitrotyrosine adducts.

CLP mice [3] = assay: Histology of renal tissue (PAS staining) after CLP; type: in vivo, mouse; settings: two-dose regimen
Excerpt: Renal tissue was also stained with periodic acid-Schiff staining to show the amount of injury to the tissue. The periodic acid-Schiff (PAS) stained sections were scored in a blinded, semi-quantitative manner. For each animal, at least 10 high power (400×) fields were examined. […] Representative PAS-stained sections are shown in FIG. 15, panels (A)-(C) 200× magnification and the tissue scores are shown in (D). CLP caused mild morphological changes characterized by […], cast formation, vacuolization, and tubule dilation. These changes were prevented by the two-dose regimen of tRes.

[4] = test system: cecal ligation and puncture model (CLP) of sepsis-induced renal injury; assay: Renal microcirculation after CLP by intravital video microscopy; type: in vivo, mouse; settings: for capillary perfusion / RBC velocity / volumetric blood flow: 18 hours after CLP
Protocol: Control (sham) mice underwent surgery but not CLP. Fresh solutions of tRes were prepared in dimethyl sulfoxide as the vehicle (veh) and diluted in normal saline before use. Dextran and […] were administered to the penile vein to visualize the capillary vascular space and detect RNS generation, respectively. The left kidney was exposed by a flank incision and positioned on a glass stage with a fluorescent microscope equipped with an Axiocam HSm camera. Intravital Video Microscopy (IVVM) of 10 s intervals at 200× magnification were acquired from randomly selected, non-overlapping fields of view. Capillaries were randomly selected for the 10 sec videos and categorized as “continuous flow” where red blood cell (RBC) movement was continuous; “intermittent flow” where RBC movement stopped or reversed; or “no flow” where no RBC movement was detected as shown in FIG. 8. RBC velocity was calculated in continuously flowing capillaries by measuring the distance traveled by a single RBC over time, expressed in μm/s.

human UGT1A10 = target: T1, human UGT1A10 (Homo sapiens, UniProt Q9HAW8); settings: 250 μM
T1 sequence (Q9HAW8 26-530): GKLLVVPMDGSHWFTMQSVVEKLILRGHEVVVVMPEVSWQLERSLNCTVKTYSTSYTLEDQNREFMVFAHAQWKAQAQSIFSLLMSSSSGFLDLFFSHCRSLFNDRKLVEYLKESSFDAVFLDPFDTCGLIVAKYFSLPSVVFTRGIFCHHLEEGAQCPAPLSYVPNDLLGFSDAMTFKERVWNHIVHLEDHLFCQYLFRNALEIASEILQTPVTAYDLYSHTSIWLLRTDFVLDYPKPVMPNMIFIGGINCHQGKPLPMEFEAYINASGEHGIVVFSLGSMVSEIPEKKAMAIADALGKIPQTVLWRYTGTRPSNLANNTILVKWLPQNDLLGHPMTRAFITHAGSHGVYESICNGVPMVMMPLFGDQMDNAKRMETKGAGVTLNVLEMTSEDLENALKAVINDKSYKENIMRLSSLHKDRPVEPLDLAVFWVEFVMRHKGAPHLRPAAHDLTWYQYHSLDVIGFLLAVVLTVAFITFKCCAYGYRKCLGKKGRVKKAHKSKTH
Protocol: Eight human recombinant UGT1A isoforms (UGT1A1, 1A3, 1A4, 1A6, 1A7, 1A8, 1A9, and 1A10; 5 μg) expressed as His-tag proteins in baculovirus-infected Sf9 insect cells and human liver microsomes (from one donor; HL2; 50 μg) and human intestinal microsomes (from two donors; HI36 and HI41; 50 μg) were evaluated for their ability to glucuronidate these four compounds. The concentrations of the substrate and co-substrate (i.e., UDP-GlcUA) were 250 μM and 4 mM, respectively. Glucuronidation products were analyzed by HPLC and LCMS/MS.
The kinetic constants of the glucuronidation reactions using recombinant human UGT1A1 and UGT1A10 were determined by measuring the enzyme activity in the presence of increasing concentrations of substrate (see FIG. 2).

CLP mice [5] = assay: Survival study after CLP; type: in vivo, mouse; settings: 10 mg/kg at 6, 12, and 18 hours following CLP, monitored for 48 h
CB1 receptors = type: biochemical, mouse; settings: 10 μM compound, 30 min at 30° C.
[6] = test system: cecal ligation and puncture model (CLP) of sepsis-induced renal injury; assay: Murine CLP model of sepsis, tRes 30 mg/kg (Example 5); type: in vivo, mouse; settings: 30 mg/kg i.p. 30 min prior to and 6 hr post CLP; 18 hr post CLP
Excerpt: Control (sham) mice underwent surgery but not CLP. Each treatment group contained 4-5 mice. Renal ONOO^− generation (rhodamine fluorescence) and renal peritubular capillary perfusion were quantified using intravital video microscopy (IVVM) on anesthetized mice in each of the treatment groups.

[7] = test system: CLP or Control (Sham) mice; assay: Renal arterial blood flow by Doppler flow probe; type: in vivo, mouse
Excerpt: Under isoflurane anesthesia, the right kidney was exposed by flank incision and the renal artery and vein were carefully dissected from surrounding tissue with Dumont-5 forceps. The renal artery was isolated from the vein and a Transonic Systems (Ithaca, N.Y.) 0.5 PSL renal artery Doppler flow probe was positioned around the renal artery. The probe was calibrated in water using the zero and scale settings on the TS420 flowmeter (Transonic Systems). […] Body temperature was maintained at 36 to 37° C. with a heating lamp. Data were expressed in ml/min/g kidney weight.
Renal blood flow was measured essentially as described above in Example 10 following CPL surgery or control treatment (no surgery). CPL-treated mice were administered 10 mg/kg of resveratrol, 2.5 mg/kg of resveratrol-3-sulfate, or vehicle. […] In fact, resveratrol-3-sulfate produced the same degree of reversal at 25% of the dose of resveratrol.

[8] = at 6 hours after CLP, administration at 5.5 hours

SMILES: Oc1ccc(/C=C/c2cc(O)cc(O)c2)cc1 [tRes, trans-resveratrol]
- serum nitrate+nitrate concentration (CLP mice [1]): did not affect
- rhodamine fluorescence (RNS generation in renal tubules) ([2]; second dose at 12 hours): completely blocked
- rhodamine fluorescence (RNS generation in renal tubules) ([2]; single dose at 6 hours): partially, but significantly reduced
- formation of nitrotyrosine adducts ([2]; CLP, two doses): blocked
- CLP-induced morphological changes of renal tissue (PAS) (CLP mice [3]): prevented
- capillary perfusion ([4]; 10 mg/kg at 6 hours and second dose at 12 hours): prevented the change
- RBC velocity ([4]; additional dose at 12 hours): complete restoration
- volumetric blood flow ([4]; additional dose at 12 hours): complete restoration
- RBC velocity ([4]; single dose): did not improve
- volumetric blood flow ([4]; single dose): did not improve
- capillary perfusion ([4]; single dose 10 mg/kg at 6 hours): unable to maintain perfusion
- mean RBC velocity ([4]; at 6 h after CLP): improved
- renal capillary volumetric blood flow ([4]; at 6 h after CLP): improved
- most efficacious dose for capillary perfusion [4, 8]: 10 mg/kg
- renal cortical peritubular capillary perfusion [4, 8]: improved perfusion in a dose dependent manner
- glucuronide formation by UGT1A10 (human UGT1A10): glucuronidated to 3-O— and 4′-O-Glucs
- survival in CLP mice (CLP mice [5]): significantly improve survival
- basal G-protein activity (CB1 receptors): little effect
- RNS generation in the kidney [6]: blocked
- renal capillary perfusion [6]: preserved
- Renal Arterial Blood Flow (RBF) ([7]; CLP mice at 6 hours, 10 mg/kg via the penile vein at 5.5 hours): 2.6 ± 0.6 mL/min/g
- renal blood flow ([7]; CPL-treated mice, 10 mg/kg (Example 15)): increased blood flow
- Renal Arterial Blood Flow (RBF) ([7]; Control (Sham) mice, 10 mg/kg): without effect
